Experimental data: ChEMBL document CHEMBL3769337, “Inspired by magnolol: design of NSAID-based compounds with excellent anti-inflammatory effects” (2015)
Calls of active or inactive are those of the source. The calls are words filed in the database; no cut-off is given here.

Legend:
[1] = test system: Mus musculus; test: Antiinflammatory activity in TPA induced BALB/c mouse ear edema model assessed as decrease in weight of ear punches at 0.75 uM administered topically for 6 mins prior to TPA challenge measured after 6 hrs relative to control; assay type: functional; set-up: scale not given: the % may be the effect or the level left
[2] = test system: Mus musculus; test: Antiinflammatory activity in TPA induced BALB/c mouse ear edema model assessed as decrease in weight of ear punches administered topically for 6 mins prior to TPA challenge measured after 6 hrs relative to control; assay type: functional; set-up: concentration or dose not given beside the values; scale not given: the % may be the effect or the level left
[3] = test system: Mus musculus; test: (§1) Antiinflammatory activity in TPA induced BALB/c mouse ear edema model assessed as decrease in inflammatory cell infiltration level administered topically for 6 mins prior to TPA challenge measured after 6 hrs by Hematoxylin and Eosin staining based microscopy; assay type: functional, organism-based
[4] = test system: Mus musculus; test: Antiinflammatory activity in TPA induced BALB/c mouse ear edema model assessed as decrease in weight of ear punches compound co-treated with diclofenac at 1:1 compound to diclofenac ratio administered topically for 6 mins prior to TPA challenge measured after 6 hrs relative to control; assay type: functional; set-up: scale not given: the % may be the effect or the level left
[5] = test system: Mus musculus; test: Antiinflammatory activity in TPA induced BALB/c mouse ear edema model assessed as decrease in weight of ear punches compound co-treated with diflunisal at 1:1 compound to diflunisal ratio administered topically for 6 mins prior to TPA challenge measured after 6 hrs relative to control; assay type: functional; set-up: scale not given: the % may be the effect or the level left
[6] = test system: Mus musculus; test: Antiinflammatory activity in TPA induced BALB/c mouse ear edema model assessed as decrease in weight of ear punches compound co-treated with flufenamic acid at 1:1 compound to flufenamic acid ratio administered topically for 6 mins prior to TPA challenge measured after 6 hrs relative to control; assay type: functional; set-up: scale not given: the % may be the effect or the level left
[7] = test system: Mus musculus; test: Antiinflammatory activity in TPA induced BALB/c mouse ear edema model assessed as decrease in weight of ear punches compound co-treated with naproxen at 1:1 compound to naproxen ratio administered topically for 6 mins prior to TPA challenge measured after 6 hrs relative to control; assay type: functional; set-up: scale not given: the % may be the effect or the level left
[8] = test system: Mus musculus; test: Antiinflammatory activity in TPA induced BALB/c mouse ear edema model assessed as decrease in weight of ear punches compound co-treated with ketoprofen at 1:1 compound to ketoprofen ratio administered topically for 6 mins prior to TPA challenge measured after 6 hrs relative to control; assay type: functional; set-up: scale not given: the % may be the effect or the level left
[9] = test system: Mus musculus; test: Antiinflammatory activity in TPA induced BALB/c mouse ear edema model assessed as decrease in weight of ear punches compound co-treated with flufenamic acid at 1:2 compound to flufenamic acid ratio administered topically for 6 mins prior to TPA challenge measured after 6 hrs relative to control; assay type: functional; set-up: scale not given: the % may be the effect or the level left
[10] = test system: Mus musculus; test: Antiinflammatory activity in TPA induced BALB/c mouse ear edema model assessed as decrease in weight of ear punches compound co-treated with naproxen at 1:2 compound to naproxen ratio administered topically for 6 mins prior to TPA challenge measured after 6 hrs relative to control; assay type: functional; set-up: scale not given: the % may be the effect or the level left
[11] = test system: Mus musculus; test: Antiinflammatory activity in TPA induced BALB/c mouse ear edema model assessed as decrease in weight of ear punches compound co-treated with ketoprofen at 1:2 compound to ketoprofen ratio administered topically for 6 mins prior to TPA challenge measured after 6 hrs relative to control; assay type: functional; set-up: scale not given: the % may be the effect or the level left
[12] = test system: Mus musculus; test: as §1, with “level compound cotreated with ketoprofen at 1:1 compound to ketoprofen ratio” for “level”; assay type: functional, organism-based
[13] = test system: Mus musculus; test: Antiinflammatory activity in TPA induced BALB/c mouse ear edema model assessed as decrease in weight of ear punches at 3 uM administered topically for 6 mins prior to TPA challenge measured after 6 hrs relative to control; assay type: functional; set-up: scale not given: the % may be the effect or the level left
[14] = test system: Mus musculus; test: Antiinflammatory activity in TPA induced BALB/c mouse ear edema model assessed as decrease in weight of ear punches at 1.5 uM administered topically for 6 mins prior to TPA challenge measured after 6 hrs relative to control; assay type: functional; set-up: scale not given: the % may be the effect or the level left
[15] = test system: Mus musculus; test: Antiinflammatory activity in TPA induced BALB/c mouse ear edema model assessed as decrease in weight of ear punches at 0.325 uM administered topically for 6 mins prior to TPA challenge measured after 6 hrs relative to control; assay type: functional; set-up: scale not given: the % may be the effect or the level left
[16] = test system: Mus musculus; test: Antiinflammatory activity in TPA induced BALB/c mouse ear edema model assessed as decrease in weight of ear punches at 0.1 uM administered topically for 6 mins prior to TPA challenge measured after 6 hrs relative to control; assay type: functional; set-up: scale not given: the % may be the effect or the level left
[17] = test system: Mus musculus; test: Antiinflammatory activity in TPA induced BALB/c mouse ear edema model assessed as morphological alterations administered topically for 6 mins prior to TPA challenge measured after 6 hrs by Hematoxylin and Eosin staining based microscopy; assay type: functional, organism-based
[18] = test system: Mus musculus; test: Decrease in TPA induced IL-1beta levels in TPA induced BALB/c mouse ear edema model administered topically for 6 mins prior to TPA challenge measured after 6 hrs by immunohistochemical analysis; assay type: functional, organism-based
[19] = test system: Mus musculus; test: Decrease in TPA induced IL6 levels in TPA induced BALB/c mouse ear edema model administered topically for 6 mins prior to TPA challenge measured after 6 hrs by immunohistochemical analysis; assay type: functional, organism-based
[20] = test system: Mus musculus; test: Decrease in TPA induced TNF-alpha levels in TPA induced BALB/c mouse ear edema model administered topically for 6 mins prior to TPA challenge measured after 6 hrs by immunohistochemical analysis; assay type: functional, organism-based
[21] = test system: Mus musculus; test: In vivo inhibition of TPA induced p65 translocation form cytoplasm to nucleus in TPA induced BALB/c mouse ear edema model administered topically for 6 mins prior to TPA challenge measured after 6 hrs by immunohistochemical analysis; assay type: functional, organism-based
[22] = test system: Mus musculus; test: Decrease in nuclear level of phosphorylated p65 in TPA induced BALB/c mouse ear edema model administered topically for 6 mins prior to TPA challenge measured after 6 hrs by immunohistochemical analysis; assay type: functional, organism-based
[23] = test system: Mus musculus; test: In vivo inhibition of TPA induced NF-kappa-B transcriptional activity in TPA induced BALB/c mouse ear edema model administered topically for 6 mins prior to TPA challenge measured after 6 hrs by immunohistochemical analysis; assay type: functional, organism-based
[24] = test system: Mus musculus; test: In vivo inhibition of TPA induced I-kappa-B-alpha phosphorylation in TPA induced BALB/c mouse ear edema model administered topically for 6 mins prior to TPA challenge measured after 6 hrs by immunohistochemical analysis; assay type: functional, organism-based
[25] = test system: Mus musculus; test: In vivo inhibition of TPA induced IKK activity in TPA induced BALB/c mouse ear edema model administered topically for 6 mins prior to TPA challenge measured after 6 hrs by immunohistochemical analysis; assay type: functional, organism-based

`C=CCc1ccc(OC(=O)[C@@H](C)c2ccc3cc(OC)ccc3c2)c(-c2cc(CC=C)ccc2OC(=O)[C@@H](C)c2ccc3cc(OC)ccc3c2)c1` was tested, and the Activity [1] was “<=90%”.
In the case of `CC(C(=O)O)c1cccc(C(=O)c2ccccc2)c1` (stereo unspecified) [KETOPROFEN], the Activity [2] is reported as 10.9% and the Activity [3] is reported as “Active”.
In the case of `C=CCc1ccc(O)c(-c2cc(CC=C)ccc2OC(=O)c2cc(-c3ccc(F)cc3F)ccc2O)c1`, the Activity [1] is reported as “<=90%”.
With `C=CCc1ccc(O)c(-c2cc(CC=C)ccc2OC(=O)Cc2ccccc2Nc2c(Cl)cccc2Cl)c1` the Activity [1] was “<=90%”.
`O=C(O)Cc1ccccc1Nc1c(Cl)cccc1Cl` [DICLOFENAC] gave an Activity [2] of 78.3%.
In the case of `C=CCc1ccc(OC(=O)C(C)c2cccc(C(=O)c3ccccc3)c2)c(-c2cc(CC=C)ccc2OC(=O)C(C)c2cccc(C(=O)c3ccccc3)c2)c1` (stereo unspecified), the Activity [1] is reported as “<=90%”.
For `C=CCc1ccc(O)c(-c2cc(CC=C)ccc2OC(=O)[C@@H](C)c2ccc3cc(OC)ccc3c2)c1`, the Activity [1] was “<=90%”.
For `C=CCc1ccc(OC(=O)c2cc(-c3ccc(F)cc3F)ccc2O)c(-c2cc(CC=C)ccc2OC(=O)c2cc(-c3ccc(F)cc3F)ccc2O)c1`, the Activity [1] was “inactive”.
`C=CCc1ccc(O)c(-c2cc(CC=C)ccc2O)c1` [MAGNOLOL] was tested, and the Activity [2] was “Dose-dependent effect”, the Activity ([2]; record 2) was 52.2% and the Activity [4] was 87.9%. The Activity [5] was 94.9%, the Activity [6] was 70.4% and the Activity [7] was 40.2%. The Activity [8] was 16.6%, the Activity [9] was 54.2% and the Activity [10] was 92.8%. For the same molecule, the Activity [11] was 72.7%, the Activity [3] was “Active” and the Activity [12] was “Active”. The Activity [13] was 96.7%, the Activity [14] was 91.7% and the Activity [1] was 58.3%. The Activity [15] was 16.7% and the Activity [16] was 8.3%.
For `C=CCc1ccc(OC(=O)c2ccccc2Nc2cccc(C(F)(F)F)c2)c(-c2cc(CC=C)ccc2OC(=O)c2ccccc2Nc2cccc(C(F)(F)F)c2)c1`, the Activity [1] was “<=90%”.
For `C=CCc1ccc(OC(=O)Cc2ccccc2Nc2c(Cl)cccc2Cl)c(-c2cc(CC=C)ccc2OC(=O)Cc2ccccc2Nc2c(Cl)cccc2Cl)c1`, the Activity [1] was “inactive”.
For `C=CCc1ccc(O)c(-c2cc(CC=C)ccc2OC(=O)c2ccccc2Nc2cccc(C(F)(F)F)c2)c1`, the Activity [1] was “<=90%”.
`C=CCc1ccc(O)c(-c2cc(CC=C)ccc2OC(=O)C(C)c2cccc(C(=O)c3ccccc3)c2)c1` (stereo unspecified) was tested, and the Activity [3] was “Active”, the Activity [17] was “Active” and the Activity [18] was “Active”. The Activity [19] was “Active”, the Activity [20] was “Active” and the inhibition [21] was “Active”. The Activity [22] was “Active”, the inhibition [23] was “Active” and the inhibition [24] was “Active”. The inhibition [25] was “Active” and the Activity [1] was “<=90%”.
In the case of `O=C(O)c1ccccc1Nc1cccc(C(F)(F)F)c1` [FLUFENAMIC ACID], the Activity [2] is reported as 75.8%.
For `C=CCc1ccc(OC(=O)c2ccccc2Nc2cccc(C)c2C)c(-c2cc(CC=C)ccc2OC(=O)c2ccccc2Nc2cccc(C)c2C)c1`, the Activity [1] was “inactive”.
In the case of `C=CCc1ccc(OC(=O)c2ccccc2O)c(-c2cc(CC=C)ccc2OC(=O)c2ccccc2O)c1`, the Activity [1] is reported as “inactive”.
`COc1ccc2cc([C@H](C)C(=O)O)ccc2c1` [NAPROXEN] showed an Activity [2] of 46%.
For `O=C(O)c1cc(-c2ccc(F)cc2F)ccc1O` [DIFLUNISAL], the Activity [2] was 80.5%.
`C=CCc1ccc(OC(=O)CC2(CC)OCCc3c2[nH]c2c(CC)cccc32)c(-c2cc(CC=C)ccc2OC(=O)CC2(CC)OCCc3c2[nH]c2c(CC)cccc32)c1` (stereo unspecified) was tested, and the Activity [1] was “inactive”.
